Source: the supplement of paper PMC10307832

How the values were obtained:
Assay in all cases: relative viability (nuclei count vs DMSO), 5 days (fraction); higher = more cells survive
Linsitinib + Tozasertib = compound: C[C@]1(O)C[C@@H](c2nc(-c3ccc4ccc(-c5ccccc5)nc4c3)c3c(N)nccn32)C1 [Linsitinib] + Cc1cc(Nc2cc(N3CCN(C)CC3)nc(Sc3ccc(NC(=O)C4CC4)cc3)n2)n[nH]1 [Tozasertib] (partner 0.1 µM)
Method in brief: (§1)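 The day after seeding in 1536-well plates, lung cancer cell lines were treated by pin tool with a single drug, or with a fixed anchor-drug dose together with five library-drug doses (not always all listed) in √10 steps. After 5 days, a combined fix-and-stain solution (final 0.05% Triton X-100, 1% formaldehyde, 1 ug/ml Hoechst) was added. Nuclei counted on 4× images gave relative viability as treated counts over vehicle counts, reported as the median of duplicate plates.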

Linsitinib + Bortezomib = compound: C[C@]1(O)C[C@@H](c2nc(-c3ccc4ccc(-c5ccccc5)nc4c3)c3c(N)nccn32)C1 [Linsitinib] + CC(C)C[C@H](NC(=O)[C@H](Cc1ccccc1)NC(=O)c1cnccn1)B(O)O [Bortezomib] (partner 0.002 µM)
Method in brief: as §1

Ispinesib + AZD7762 = compound: Cc1ccc(C(=O)N(CCCN)[C@@H](c2nc3cc(Cl)ccc3c(=O)n2Cc2ccccc2)C(C)C)cc1 [Ispinesib] + NC(=O)Nc1cc(-c2cccc(F)c2)sc1C(=O)N[C@H]1CCCNC1 [AZD7762] (partner 0.2 µM)
Method in brief: as §1

Ispinesib + Luminespib = compound: Cc1ccc(C(=O)N(CCCN)[C@@H](c2nc3cc(Cl)ccc3c(=O)n2Cc2ccccc2)C(C)C)cc1 [Ispinesib] + CCNC(=O)c1noc(-c2cc(C(C)C)c(O)cc2O)c1-c1ccc(CN2CCOCC2)cc1 [Luminespib] (partner 0.01 µM)
Method in brief: as §1

Cell Line | relative viability (Linsitinib + Tozasertib; first compound 0.01 µM) | relative viability (Linsitinib + Tozasertib; first compound 0.03162 µM) | relative viability (Linsitinib + Tozasertib; first compound 0.1 µM) | relative viability (Linsitinib + Tozasertib; first compound 0.3162 µM) | relative viability (Linsitinib + Tozasertib; first compound 1 µM) | relative viability (Linsitinib + Bortezomib; first compound 0.01 µM) | relative viability (Linsitinib + Bortezomib; first compound 0.03162 µM) | relative viability (Linsitinib + Bortezomib; first compound 0.1 µM) | relative viability (Linsitinib + Bortezomib; first compound 0.3162 µM) | relative viability (Linsitinib + Bortezomib; first compound 1 µM) | relative viability (Ispinesib + AZD7762; first compound 0.001 µM) | relative viability (Ispinesib + AZD7762; first compound 0.003162 µM) | relative viability (Ispinesib + AZD7762; first compound 0.01 µM) | relative viability (Ispinesib + AZD7762; first compound 0.03162 µM) | relative viability (Ispinesib + AZD7762; first compound 0.1 µM) | relative viability (Ispinesib + Luminespib; first compound 0.001 µM) | relative viability (Ispinesib + Luminespib; first compound 0.003162 µM) | relative viability (Ispinesib + Luminespib; first compound 0.01 µM) | relative viability (Ispinesib + Luminespib; first compound 0.03162 µM) | relative viability (Ispinesib + Luminespib; first compound 0.1 µM)
NCI-H596 | 0.889 | 0.948 | 0.822 | 0.724 | 0.812 | 1.12 | 0.996 | 0.974 | 0.872 | 1.06 | 1.2 | 0.683 | 1.19 | 1.15 | 0.423 | 1.01 | 0.954 | 1.07 | 1.06 | 0.609
NCI-H647 | 0.342 | 0.262 | 0.319 | – | 0.217 | 1.03 | 1.12 | 1.07 | – | 0.811 | 0.662 | 0.564 | 0.451 | 0.185 | 0.172 | 0.172 | 0.28 | 0.233 | 0.229 | 0.151
NCI-H650 | 0.762 | 0.786 | 0.699 | 0.502 | 0.601 | 0.721 | 0.768 | 0.863 | – | 0.584 | 1.15 | 1.21 | 1.09 | 0.634 | 0.456 | 0.739 | 0.836 | 0.808 | 0.621 | 0.783
NCI-H727 | 0.643 | 0.67 | 0.689 | 0.623 | 0.523 | 0.86 | 0.856 | 0.948 | 0.392 | 0.501 | 0.722 | 0.564 | – | 0.548 | 0.498 | 0.244 | 0.284 | 0.349 | 0.0037 | 0.308
NCI-H838 | 0.277 | 0.209 | 0.295 | – | 0.221 | 0.809 | 0.898 | 0.755 | 0.153 | 0.385 | 1.01 | 0.804 | 1.03 | 0.941 | 0.714 | 0.302 | 0.325 | 0.278 | 0.322 | 0.268
NCI-H1355 | 0.584 | 0.576 | 0.475 | 0.458 | 0.428 | 1.19 | 1.25 | 1.18 | 0.748 | 0.79 | 0.783 | 0.847 | 0.805 | 0.448 | 0.284 | 0.702 | 0.729 | 0.881 | 0.598 | 0.488
NCI-H1437 | 0.388 | 0.352 | 0.444 | 0.333 | 0.451 | 0.561 | 0.507 | 0.545 | 0.302 | 0.38 | 1.16 | 1.15 | 1.18 | 1.13 | 0.296 | 1.16 | 1.22 | 1.26 | 1.22 | 0.994
NCI-H1651 | 0.619 | 0.646 | 0.714 | 0.484 | 0.513 | 0.954 | 0.976 | 0.792 | 0.82 | 0.916 | 0.531 | 0.561 | 0.524 | 0.441 | 0.408 | 0.989 | 0.88 | 0.859 | 1.23 | 0.404
NCI-H1666 | 0.595 | 0.628 | 0.587 | 0.545 | 0.434 | 0.675 | 0.798 | 0.774 | 0.348 | 0.308 | 0.872 | 0.922 | 0.898 | 0.699 | 0.641 | 1 | 0.973 | 0.946 | 0.887 | 0.501
NCI-H1734 | 0.242 | 0.244 | 0.274 | 0.242 | 0.267 | 0.851 | 0.962 | 1.01 | 0.665 | 0.643 | 0.709 | 0.627 | 0.64 | 0.448 | 0.245 | 0.179 | 0.0914 | 0.177 | 0.192 | 0.157
NCI-H1755 | 0.585 | 0.587 | 0.569 | 0.375 | 0.514 | 0.939 | 0.882 | 0.981 | 0.661 | 0.794 | 0.489 | 0.437 | 0.433 | 0.408 | 0.274 | 0.292 | 0.641 | 0.423 | 0.315 | 0.441
NCI-H1915 | 0.44 | 0.477 | 0.437 | 0.378 | 0.353 | 0.948 | 0.979 | 0.961 | 0.918 | 0.671 | 0.728 | 0.687 | 0.748 | 0.451 | 0.112 | 0.979 | 0.987 | 1.13 | 0.706 | 0.385
NCI-H1975 | 0.691 | 0.677 | 0.865 | 0.665 | 0.311 | 0.332 | 0.348 | 0.373 | 0.404 | 0.296 | 0.678 | 0.829 | 0.781 | 0.617 | 0.279 | 0.231 | 0.217 | 0.21 | 0.351 | 0.198
NCI-H1993 | 0.561 | 0.606 | 0.619 | 0.579 | 0.602 | 1.26 | 1.29 | 1.32 | 0.797 | 0.695 | 0.918 | 0.821 | 0.636 | 0.646 | 0.508 | 0.801 | 0.45 | 1.01 | 0.821 | 0.634
